How the values were obtained:
CDK2 = target: T1, CDK2 (Homo sapiens, UniProt P24941); assay: CDK protein degradation activity (Western blotting), CDK2; assay type: cell-based; details: MDA-MB-231 cells, 16 hours, Western blot
T1 construct: endogenous in cells; host or cells: MDA-MB-231
Procedure, shortened: (§1)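 Protein levels were read by Western blot densitometry, tubulin serving as loading reference. Beforehand, MDA-MB-231 cells had been exposed for 16 hours to 100 nM, 1 μM or 10 μM compound, DMSO as control.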

CDK9 = target: T2, CDK9 (Homo sapiens, UniProt P50750); assay: CDK protein degradation activity (Western blotting), CDK9; assay type: cell-based; details: MDA-MB-231 cells, 16 hours, Western blot
T2 construct: endogenous in cells; host or cells: MDA-MB-231
T2 sequence (P50750 whole entry): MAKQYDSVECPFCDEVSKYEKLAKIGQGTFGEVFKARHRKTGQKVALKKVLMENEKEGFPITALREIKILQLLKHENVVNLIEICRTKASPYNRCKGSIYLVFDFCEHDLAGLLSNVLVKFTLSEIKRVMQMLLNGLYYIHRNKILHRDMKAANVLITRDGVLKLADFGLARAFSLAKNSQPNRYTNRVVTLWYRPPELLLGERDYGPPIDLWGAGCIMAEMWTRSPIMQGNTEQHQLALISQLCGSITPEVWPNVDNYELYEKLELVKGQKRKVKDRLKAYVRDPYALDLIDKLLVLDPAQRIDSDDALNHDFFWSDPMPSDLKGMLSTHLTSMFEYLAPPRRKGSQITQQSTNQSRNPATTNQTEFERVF
Procedure, shortened: as §1

Molecule | Enzyme degradation CDK2 (% remaining) @ 0.1 μM (CDK2) | Enzyme degradation CDK2 (% remaining) @ 1 μM (CDK2) | Enzyme degradation CDK2 (% remaining) @ 10 μM (CDK2) | Enzyme degradation CDK9 (% remaining) @ 0.1 μM (CDK9) | Enzyme degradation CDK9 (% remaining) @ 1 μM (CDK9) | Enzyme degradation CDK9 (% remaining) @ 10 μM (CDK9)
O=C1CC[C@H](N2C(=O)c3ccc(N4CCC(CN5CCN(c6ccc(Nc7ncnc8c7ncn8[C@H]7C[C@@H](NC(=O)c8cccc(F)n8)C7)cc6)CC5)CC4)cc3C2=O)C(=O)N1 [Compound 390, N-((1s,3s)-3-(6-((4-(4-((1-(2-(2,6-dioxopiperidin-3-yl)-1,3-dioxoisoindolin-5-yl)piperidin-4-yl)methyl)piperazin-1-yl)phenyl)amino)-9H-purin-9-yl)cyclobutyl)-6-fluoropicolinamide] | 20/20/20% | 20/20/20% | 20/20/20% | 10% | 0% | 0%
O=C1CCC(N2C(=O)c3ccc(N4CCN(CCCN5CCN(c6ccc(Nc7ncnc8c7ncn8[C@H]7C[C@@H](NC(=O)Cc8ccccc8)C7)cc6)CC5)CC4)cc3C2=O)C(=O)N1 (stereo partly drawn) [Compound 239, N-((1s,3s)-3-(6-((4-(4-(3-(4-(2-(2,6-dioxopiperidin-3-yl)-1,3-dioxoisoindolin-5-yl)piperazin-1-yl)propyl)piperazin-1-yl)phenyl)amino)-9H-purin-9-yl)cyclobutyl)-2-phenylacetamide] | 100% | 20% | 20% | 70% | 0% | 0%
O=C1CC[C@H](N2C(=O)c3cc(F)c(N4CCC(CN5CCN(c6ccc(Nc7ncnc8c7ncn8[C@H]7C[C@@H](NC(=O)c8cccc(Cl)n8)C7)cc6)CC5)CC4)cc3C2=O)C(=O)N1 [Compound 416, 6-chloro-N-((1s,3s)-3-(6-((4-(4-((1-(2-(2,6-dioxopiperidin-3-yl)-6-fluoro-1,3-dioxoisoindolin-5-yl)piperidin-4-yl)methyl)piperazin-1-yl)phenyl)amino)-9H-purin-9-yl)cyclobutyl)picolinamide] | 20% | 10% | 10% | 10/10/10% | 10/10/10% | 10/10/10%
Cc1cccc(C(=O)N[C@H]2C[C@@H](n3cnc4c(NC5CCN(CCCCCCNc6ccc7c(c6)C(=O)N([C@H]6CCC(=O)NC6=O)C7=O)CC5)ncnc43)C2)n1 [Compound 17, N-((1s,3s)-3-(6-((1-(6-((2-(2,6-dioxopiperidin-3-yl)-1,3-dioxoisoindolin-5-yl)amino)hexyl)piperidin-4-yl)amino)-9H-purin-9-yl)cyclobutyl)-6-methylpicolinamide] | 90% | 100% | 50% | 10% | 0% | 0%
O=C1CC[C@H](N2C(=O)c3cccc(OCC(=O)N4CCC(CN5CCC(CNc6ncnc7c6ncn7C6CC(NC(=O)c7c(Cl)cccc7Cl)C6)CC5)CC4)c3C2=O)C(=O)N1 (stereo partly drawn) [Compound 168, 2,6-dichloro-N-((1s,3s)-3-(6-(((1-((1-(2-((2-(2,6-dioxopiperidin-3-yl)-1,3-dioxoisoindolin-4-yl)oxy)acetyl)piperidin-4-yl)methyl)piperidin-4-yl)methyl)amino)-9H-purin-9-yl)cyclobutyl)benzamide] | 50% | 10% | 10% | 80% | 40% | 10%
O=C1CC[C@H](N2C(=O)c3cccc(NCC(=O)N4CCN(CC5CCN(c6ccc(Nc7ncnc8c7ncn8[C@H]7C[C@@H](NC(=O)Cc8ccccc8)C7)cc6)CC5)CC4)c3C2=O)C(=O)N1 [Compound 322, N-((1s,3s)-3-(6-((4-(4-((4-((2-(2,6-dioxopiperidin-3-yl)-1,3-dioxoisoindolin-4-yl)glycyl)piperazin-1-yl)methyl)piperidin-1-yl)phenyl)amino)-9H-purin-9-yl)cyclobutyl)-2-phenylacetamide] | 20% | 10% | 20% | 20% | 10% | 20%
O=C1CC[C@H](n2nnc3ccc(N4CCC5(CC4)CC(N4CCN(c6ccc(Nc7ncnc8c7ncn8[C@H]7C[C@@H](NC(=O)Cc8ccccc8)C7)cc6)CC4)C5)cc3c2=O)C(=O)N1 [Compound 314, N-((1s,3s)-3-(6-((4-(4-(7-(3-(2,6-dioxopiperidin-3-yl)-4-oxo-3,4-dihydrobenzo[d][1,2,3]triazin-6-yl)-7-azaspiro[3.5]nonan-2-yl)piperazin-1-yl)phenyl)amino)-9H-purin-9-yl)cyclobutyl)-2-phenylacetamide] | 10/10/10% | 10/10/10% | 10/10/10% | 10% | 0% | 0%
O=C1CC[C@H](N2C(=O)c3cccc(NCC(=O)N4CCN(CCCN5CCN(c6ccc(Nc7ncnc8c7ncn8[C@H]7C[C@@H](NC(=O)Cc8ccccc8)C7)cc6)CC5)CC4)c3C2=O)C(=O)N1 [Compound 231, N-((1s,3s)-3-(6-((4-(4-(3-(4-((2-(2,6-dioxopiperidin-3-yl)-1,3-dioxoisoindolin-4-yl)glycyl)piperazin-1-yl)propyl)piperazin-1-yl)phenyl)amino)-9H-purin-9-yl)cyclobutyl)-2-phenylacetamide] | 50% | 60% | 40% | 20% | 0% | 0%
O=C1CC[C@H](N2C(=O)c3ccc(OCC(=O)N4CCC5(CC4)CC(N4CCN(c6ccc(Nc7ncnc8c7ncn8[C@H]7C[C@@H](NC(=O)Cc8ccccc8)C7)cc6)CC4)C5)cc3C2=O)C(=O)N1 [Compound 208, N-((1s,3s)-3-(6-((4-(4-(7-(2-((2-(2,6-dioxopiperidin-3-yl)-1,3-dioxoisoindolin-5-yl)oxy)acetyl)-7-azaspiro[3.5]nonan-2-yl)piperazin-1-yl)phenyl)amino)-9H-purin-9-yl)cyclobutyl)-2-phenylacetamide] | 80% | 70% | 70% | 10% | 0% | 0%
O=C1CC[C@H](N2C(=O)c3ccc(N4CCC(C(=O)N5CCC(CCN6CCN(c7ccc(Nc8ncnc9c8ncn9C8CC(NC(=O)c9c(Cl)cccc9Cl)C8)cc7)CC6)CC5)CC4)cc3C2=O)C(=O)N1 (stereo partly drawn) [Compound 413, 2,6-dichloro-N-((1s,3s)-3-(6-((4-(4-(2-(1-(1-(2-(2,6-dioxopiperidin-3-yl)-1,3-dioxoisoindolin-5-yl)piperidin-4-carbonyl)piperidin-4-yl)ethyl)piperazin-1-yl)phenyl)amino)-9H-purin-9-yl)cyclobutyl)benzamide] | 30% | 20% | 20% | 10/10/10% | 10/10/10% | 10/10/10%
N-((1s,3s)-3-(6-((4-(4-(3-(4-(1-(2-(2,6-dioxopiperidin-3-yl)-1,3-dioxoisoindolin-5-yl)azetidin-3-carbonyl)piperazin-1-yl)propyl)piperidin-1-yl)phenyl)amino)-9H-purin-9-yl)cyclobutyl)-2-phenylacetamide [Compound 366] | 20% | 0% | 0% | 10/10/10% | 10/10/10% | 10/10/10%
O=C1CC[C@H](n2nnc3ccc(N4CCC(CN5CCC(CCNc6ncnc7c6ncn7C6CC(NC(=O)c7c(Cl)cccc7Cl)C6)CC5)CC4)cc3c2=O)C(=O)N1 (stereo partly drawn) [Compound 398, 2,6-dichloro-N-((1s,3s)-3-(6-((2-(1-((1-(3-(2,6-dioxopiperidin-3-yl)-4-oxo-3,4-dihydrobenzo[d][1,2,3]triazin-6-yl)piperidin-4-yl)methyl)piperidin-4-yl)ethyl)amino)-9H-purin-9-yl)cyclobutyl)benzamide] | 20% | 30% | 30% | 20% | 10% | 10%
O=C1CC[C@H](N2C(=O)c3ccc(N4CCC(CN5CCC(c6ccc(Nc7ncnc8c7ncn8[C@H]7C[C@@H](NC(=O)Cc8ccccc8)C7)cc6)CC5)CC4)cc3C2=O)C(=O)N1 [Compound 292, N-((1s,3s)-3-(6-((4-(1-((1-(2-(2,6-dioxopiperidin-3-yl)-1,3-dioxoisoindolin-5-yl)piperidin-4-yl)methyl)piperidin-4-yl)phenyl)amino)-9H-purin-9-yl)cyclobutyl)-2-phenylacetamide] | 10/10/10% | 10/10/10% | 10/10/10% | 10% | 0% | 0%

Source: patent publication US20260125382A1, “COMPOUNDS FOR INHIBITING OR DEGRADING CDK2 AND/OR CDK9 AND MEDICINAL USE THEREOF” (KOREA RESEARCH INSTITUTE OF CHEMICAL TECHNOLOGY, priority 2022, published 2026)
